Molecular target: T1, human Cystic Fibrosis Transmembrane Conductance Regulator (CFTR) harboring the ΔF508 mutation (Homo sapiens, UniProt P13569, DEL508-508)
T1 construct: expressed in transfected cells; host or cells: H441 carcinoma line (G418-selected)
Experiment: H441 cell ΔF508-CFTR-HRP cell surface assay (Emax and EC50)
Format: cell-based
Conditions: for Emax: NCI-H441, NA = Not active
Source text: Example 315: H441 Cell Emax and EC50 Two cell lines were used, the H441 carcinoma line and the CFHBE41o- (41o-) human bronchial epithelial line. Both cell lines expressed human Cystic Fibrosis Transmembrane Conductance Regulator (CFTR) harboring the ΔF508 mutation and with an in-frame fusion in CFTR extracellular loop 4 of Horse Radish Peroxidase (HRP) under control of the CMV promoter. In the presence of the HRP tag, ΔF508-CFTR transported to the cell surface was detectable upon addition of an HRP substrate (Luminata Forte). Both cell types were cultivated at 37° C. with CO2. […] For both cell types, the medium was changed every other day unless the culture was at low % confluence. Cells were used for the assays at 75% confluence. To a polypropylene (PP) 384-well plate, 15 pls DMSO was added to all wells in columns 1-22 and 24 (low Control). 15 μls of 260 μM VX809 (Lumacaftor), Selleckchem […], was added to column 23 wells (high Control). 15 pls of 10 mM test compound or VX809 (control) were added to wells of row A. Serial dilutions of Row A compound were performed 2×15 pls in rows A through 0 (15-point). A PP, 384-well plate containing the appropriate cell culture medium was prepared for each assay plate with 100 pls per well. For the doxycycline-induced 41o-cells, doxycycline for both the assay plate and the medium dilution plate was added at 0.0005 mg/ml to the medium. Both cell lines were plated for the assay at 30 pls per 384-well at 3.4×10 e^5 cells per ml ( 10K cells/well). H441 cells were plated on opaque, white, Corning plate 3704. 41o-cells were plated on collagen-coated opaque, white, Corning plate 356665. For 41o-cells, doxycycline was added to the medium. Using FX (Beckman) protocol, 10 pls diluted compound or medium was added per well to the Assay Plate as: 2 pls DMSO Dilution plate well was diluted in 100 pls of the Medium Dilution Plate well, mixed, and 10 pls was transferred to the Assay Plate. The final assay dilution series was 24.5, 12.3, 6.1, 3.1, 1.5, 0.8, 0.4, 0.2, 0.1, 0.05, 0.02, 0.01, 0.006, 0.003, 0.001 and 0 μM. The 41o-assay plates were incubated at 37° C. w/CO2, the H441 assay plates were incubated at 27° C. w/CO2, each overnight for two nights. After being brought to room temperature, the assay plate liquid was removed. 30 uls of Luminata Forte (Millipore ELLUF0100) was added per well and incubated at room temperature for 10 min. The plates were then read on a Topcount, protocol LumiMatti (CPS, luminescence). The data was analyzed for % of maximum, maximum VX809 signal, and EC50 using Pearl and SPEED tools.

T1 sequence (P13569 with tags, fused parts or gaps DEL508-508): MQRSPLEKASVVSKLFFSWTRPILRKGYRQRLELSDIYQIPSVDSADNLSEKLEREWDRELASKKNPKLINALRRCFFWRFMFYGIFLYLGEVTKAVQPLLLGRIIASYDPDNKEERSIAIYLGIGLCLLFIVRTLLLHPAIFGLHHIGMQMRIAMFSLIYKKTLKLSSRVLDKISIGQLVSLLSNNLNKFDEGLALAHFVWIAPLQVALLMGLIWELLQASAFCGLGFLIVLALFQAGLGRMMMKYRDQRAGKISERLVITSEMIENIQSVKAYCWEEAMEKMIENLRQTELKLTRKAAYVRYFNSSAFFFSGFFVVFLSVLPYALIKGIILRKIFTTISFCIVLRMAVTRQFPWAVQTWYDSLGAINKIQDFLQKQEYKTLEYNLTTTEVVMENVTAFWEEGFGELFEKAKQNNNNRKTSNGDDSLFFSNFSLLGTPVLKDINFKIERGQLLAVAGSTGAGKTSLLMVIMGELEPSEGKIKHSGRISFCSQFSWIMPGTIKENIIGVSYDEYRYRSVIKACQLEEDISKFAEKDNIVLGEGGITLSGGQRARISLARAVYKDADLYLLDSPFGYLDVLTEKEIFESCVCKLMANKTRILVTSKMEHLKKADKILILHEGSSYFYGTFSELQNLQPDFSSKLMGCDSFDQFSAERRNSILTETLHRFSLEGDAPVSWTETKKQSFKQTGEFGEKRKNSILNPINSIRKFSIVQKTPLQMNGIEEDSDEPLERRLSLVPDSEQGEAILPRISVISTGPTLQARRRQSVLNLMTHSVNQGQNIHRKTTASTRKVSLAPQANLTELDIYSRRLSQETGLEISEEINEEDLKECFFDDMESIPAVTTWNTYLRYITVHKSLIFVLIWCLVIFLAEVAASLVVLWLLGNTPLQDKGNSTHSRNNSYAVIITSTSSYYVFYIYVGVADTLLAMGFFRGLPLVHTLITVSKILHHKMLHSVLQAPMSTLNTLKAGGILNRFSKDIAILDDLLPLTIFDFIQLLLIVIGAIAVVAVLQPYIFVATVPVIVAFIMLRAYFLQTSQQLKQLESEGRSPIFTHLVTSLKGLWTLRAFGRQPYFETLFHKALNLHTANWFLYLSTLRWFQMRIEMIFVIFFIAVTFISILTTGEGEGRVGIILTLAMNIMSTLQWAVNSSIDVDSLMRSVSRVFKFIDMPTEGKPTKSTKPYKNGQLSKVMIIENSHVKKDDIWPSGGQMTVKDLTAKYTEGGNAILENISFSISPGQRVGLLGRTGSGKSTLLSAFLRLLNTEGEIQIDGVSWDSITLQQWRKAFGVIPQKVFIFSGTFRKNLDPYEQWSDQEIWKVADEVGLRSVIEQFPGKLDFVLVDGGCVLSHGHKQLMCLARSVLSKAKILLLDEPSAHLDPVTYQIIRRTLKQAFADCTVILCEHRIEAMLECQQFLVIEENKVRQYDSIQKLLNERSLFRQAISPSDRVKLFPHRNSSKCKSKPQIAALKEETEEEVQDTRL

CO[C@@H](C)[C@H](NC(=O)c1ccc2ccccc2c1OCc1ccc(C(F)(F)F)cc1)C(=O)O [Example 135, O-methyl-N-(1-((4-(trifluoromethyl)benzyl)oxy)-2-naphthoyl)-L-allothreonine] showed an EC50 of 4.7 µM and an Emax of 93.5%.
CC1(C(NC(=O)c2ccc3cc(F)ccc3c2OCC2CCC(F)(F)CC2)C(=O)O)CCCCC1 (stereo not shown) [Example 54, 2-(1-((4,4-difluorocyclohexyl)methoxy)-6-fluoro-2-naphthamido)-2-(1-methylcyclohexyl)acetic Acid] gave an EC50 of 2.4 µM and an Emax of 56.1%.
O=C(N[C@H](C(=O)O)C1CCCC1)c1ccc2cc(F)ccc2c1OCc1ccc(S(F)(F)(F)(F)F)cc1 [Example 113, (S)-2-cyclopentyl-2-(6-fluoro-1-((4-(pentafluoro-16-sulfanyl)benzyl)oxy)-2-naphthamido)acetic Acid] showed an EC50 of 3.7 µM and an Emax of 58.2%.
CC(C)C#CCOc1c(C(=O)N[C@H](C(=O)O)C(C)(C)C)ccc2cc(F)ccc12 [Example 224, (2S)-2-[[6-fluoro-1-(4-methylpent-2-ynoxy)naphthalene-2-carbonyl]amino]-3,3-dimethyl-butanoic Acid] was tested, and the EC50 was 12.8 µM and the Emax was 119%.
With CCC(C)(C)[C@H](NC(=O)c1ccc2c(F)cc(C)cc2c1OCc1ccc(OC(F)(F)F)cc1)C(=O)O [Example 273, (2S)-2-[[5-fluoro-7-methyl-1-[[4-(trifluoromethoxy)phenyl]methoxy]naphthalene-2-carbonyl]amino]-3,3-dimethyl-pentanoic Acid] the EC50 was 0.1 µM and the Emax was 339%.
With O=C(N[C@@H](Cc1ccccc1)C(=O)O)c1ccc2ccccc2c1OCc1ccc(C(F)(F)F)cc1 [Example 87, (1-((4-(trifluoromethyl)benzyl)oxy)-2-naphthoyl)-L-phenylalanine] the EC50 was 2.1 µM and the Emax was 103%.
O=C(N[C@@H](Cc1ccccc1)C(=O)O)c1ccc2ccccc2c1OCc1cccc2c1OC(F)(F)O2 [Example 102, (1-((2,2-difluorobenzo[d][1,3]dioxol-4-yl)methoxy)-2-naphthoyl)-L-phenylalanine] was tested, and the EC50 was 8 µM and the Emax was 33.7%.
For CC1(C(NC(=O)c2ccc3ccccc3c2OC[C@H]2CC[C@@H](C(F)(F)F)CC2)C(=O)O)CCCCC1 (stereo partly shown) [Example 39, 2-(1-methylcyclohexyl)-2-(1-(((1s,4s)-4-(trifluoromethyl)cyclohexyl)methoxy)-2-naphthamido)acetic Acid], the EC50 was 15.4 µM and the Emax was 60.7%.
O=C(N[C@H](C(=O)O)C12CC(C(F)(F)F)(C1)C2)c1ccc2ccccc2c1OCc1ccc(S(F)(F)(F)(F)F)cc1 [Example 24, (S)-2-(1-((4-(pentafluoro-λ^6-sulfanyl)benzyl)oxy)-2-naphthamido)-2-(3-(trifluoromethyl)bicyclo[1.1.1]pentan-1-yl)acetic Acid] gave an EC50 of 1.1 µM and an Emax of 66.1%.
Compound Cc1cc(F)c2ccc(C(=O)N[C@H](C(=O)O)C(C)(C)C)c(OCc3ccc(OC(F)(F)F)cc3)c2c1 [Example 271, (2S)-2-[[5-fluoro-7-methyl-1-[[4-(trifluoromethoxy)phenyl]methoxy]naphthalene-2-carbonyl]amino]-3,3-dimethyl-butanoic Acid] has an EC50 of 0.2 µM and an Emax of 261%.
With CC(C)(C)OC(=O)C[C@H](NC(=O)c1ccc2ccccc2c1OCc1ccc(C(F)(F)F)cc1)C(=O)O (stereo in doubt) [Example 151, 4-(tert-butoxy)-4-oxo-2-(1-((4-(trifluoromethyl)benzyl)oxy)-2-naphthamido)butanoic Acid] the EC50 was 13.4 µM and the Emax was 68.7%.
CC(C)(C)C[C@H](NC(=O)c1ccc2ccccc2c1OCc1ccc(S(=O)(=O)C(F)(F)F)cc1)C(=O)O [Example 157, (S)-4,4-dimethyl-2-(1-((4-((trifluoromethyl)sulfonyl)benzyl)oxy)-2-naphthamido)pentanoic Acid] was tested, and the EC50 was 7.1 µM and the Emax was 55%.
With CCC(C)(C)[C@H](NC(=O)c1ccc2cc(F)ccc2c1OCC1CCC(F)(F)CC1)C(=O)O [Example 34, (S)-2-(1-((4,4-difluorocyclohexyl)methoxy)-6-fluoro-2-naphthamido)-3,3-dimethylpentanoic Acid] the EC50 was 3.8 µM and the Emax was 78.4%.
CS(=O)(=O)c1ccc(COc2c(C(=O)N[C@H](C(=O)O)C3CCCC3)ccc3ccccc23)cc1 [Example 159, (S)-2-cyclopentyl-2-(1-((4-(methylsulfonyl)benzyl)oxy)-2-naphthamido)acetic Acid] showed an EC50 of 6.7 µM and an Emax of 22.8%.
With O=C(NC(C(=O)O)C(C(F)(F)F)C(F)(F)F)c1ccc2cc(F)ccc2c1OCc1ccc(C(F)(F)F)cc1 (stereo not shown) [Example 182, 4,4,4-trifluoro-2-(6-fluoro-1-((4-(trifluoromethyl)benzyl)oxy)-2-naphthamido)-3-(trifluoromethyl)butanoic Acid] the EC50 was 4 µM and the Emax was 31.4%.
In the case of O=C(N[C@@H](Cc1ccc(C(F)(F)F)cc1)C(=O)O)c1ccc2ccccc2c1OCc1ccc(OC(F)(F)F)cc1 [Example 190, (S)-2-(1-((4-(trifluoromethoxy)benzyl)oxy)-2-naphthamido)-3-(4-(trifluoromethyl)phenyl)propanoic Acid], the EC50 is reported as 7 µM and the Emax is reported as 17.9%.
O=C(N[C@@H](Cc1ccncc1)C(=O)O)c1ccc2ccccc2c1OCc1ccc(C(F)(F)F)cc1 [Example 103, (S)-3-(pyridin-4-yl)-2-(1-((4-(trifluoromethyl)benzyl)oxy)-2-naphthamido)propanoic Acid] showed an Emax of 22.4%.
With O=C(N[C@H](C(=O)O)C12CC(C(F)(F)F)(C1)C2)c1ccc2cc(F)ccc2c1OCc1ccc(C(F)(F)F)cc1 [Example 15, (S)-2-(6-fluoro-1-((4-(trifluoromethyl)benzyl)oxy)-2-naphthamido)-2-(3-(trifluoromethyl)bicyclo[1.1.1]pentan-1-yl)acetic Acid] the EC50 was 1.7 µM and the Emax was 48.4%.
Work on CC(C)(SCC1CC1(F)F)[C@H](NC(=O)c1ccc2ccccc2c1OCc1ccc(S(C)(=O)=O)cc1)C(=O)O (stereo partly drawn) [Example 166, (2R)-3-(((2,2-difluorocyclopropyl)methyl)thio)-3-methyl-2-(1-((4-(methylsulfonyl)benzyl)oxy)-2-naphthamido)butanoic Acid] yielded an Emax of 6.6%.
Work on O=C(N[C@H](C(=O)O)C12CC(C(F)(F)F)(C1)C2)c1ccc2ccccc2c1OCc1ccc(S(=O)(=O)C(F)(F)F)cc1 [Example 3, (S)-2-(3-(trifluoromethyl)bicyclo[1.1.1]pentan-1-yl)-2-(1-((4-((trifluoromethyl)sulfonyl)benzyl)oxy)-2-naphthamido)acetic Acid] yielded an EC50 of 2.2 µM and an Emax of 18.1%.
For CCC(C)(C)[C@H](NC(=O)c1ccc2ccccc2c1OCc1ccc(S(C)(=O)=O)cc1)C(=O)O [Example 53, (S)-3,3-dimethyl-2-(1-((4-(methylsulfonyl)benzyl)oxy)-2-naphthamido)pentanoic Acid], the EC50 was 22.9 µM and the Emax was 19.8%.
O=C(N[C@@H](Cc1ccccc1)C(=O)O)c1ccc2ccccc2c1OCc1ccc2c(c1)OCO2 [Example 121, (1-(benzo[d][1,3]dioxol-5-ylmethoxy)-2-naphthoyl)-L-phenylalanine] showed an EC50 of 0.2 µM and an Emax of 3.7%.
NC12CCC(C(NC(=O)c3ccc4cc(F)ccc4c3OCc3ccc(OC(F)(F)F)cc3)C(=O)O)(CC1)CC2 (stereo not shown) [Example 184, 2-(4-aminobicyclo[2.2.2]octan-1-yl)-2-(6-fluoro-1-((4-(trifluoromethoxy)benzyl)oxy)-2-naphthamido)acetic Acid] showed an Emax of 11.7%.
In the case of O=C(N[C@H](C(=O)O)C1CCCC1)c1ccc2ccccc2c1OCc1ccc(S(=O)(=O)C(F)(F)F)cc1 [Example 156, (S)-2-cyclopentyl-2-(1-((4-((trifluoromethyl)sulfonyl)benzyl)oxy)-2-naphthamido)acetic Acid], the EC50 is reported as 1.9 µM and the Emax is reported as 51.7%.
CC(C)(C)[C@H](NC(=O)c1ccc2ccc(C(F)(F)F)cc2c1OCc1ccc(C(F)(F)F)cc1)C(=O)O [compound 293, (S)-3,3-dimethyl-2-(7-(trifluoromethyl)-1-((4-(trifluoromethyl)benzyl)oxy)-2-naphthamido)butanoic Acid] showed an EC50 of 0.3 µM and an Emax of 327%.
CC(C)(C)[C@H](NC(=O)c1ccc2cc(F)ccc2c1OCC1CCC(F)(F)CC1)C(=O)O [Example 76, (S)-2-(1-((4,4-difluorocyclohexyl)methoxy)-6-fluoro-2-naphthamido)-3,3-dimethylbutanoic Acid] gave an EC50 of 7.1 µM and an Emax of 58.3%.
